One test concerns m-IMCD3 cells. In words: Inhibition of PGE2-stimulated in vitro cyst formation in m-IMCD3 cells. Type of test: cell-based, mouse. As to conditions: Mus musculus, mIMCD3, 144 h, 3 μM; mean cyst area, 100% for (DMSO + PGE2) and 0% for DMSO control; 6 days of culture; read-out: % Cyst area after incubation with 3 μM test compound. The gist of the method:
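m-IMCD3 cells embedded in collagen I/Matrigel 3D culture; 18–24 h after plating, compound (0.1% DMSO final) plus PGE2 (100 nM final) added, replenished after 2 or 3 days. After 6 days, z-stack imaging gave mean cyst area, normalized to DMSO+PGE2 (100%) and DMSO (0%).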
For the compound `O=C(c1cc2ccccc2o1)N1CCc2nc(N3C4CCC3CNC4)sc2C1` [Example 185, (2-(3,8-diazabicyclo[3.2.1]octan-8-yl)-6,7-dihydrothiazolo[5,4-c]pyridin-5(4H)-yl)(benzofuran-2-yl)methanone], the activity at 3 µM was -2%.

`O=C(c1ccc(F)cc1F)N1CCc2nc(N3C4CCC3CNC4)sc2C1` [Example 212, (2-(3,8-diazabicyclo[3.2.1]octan-8-yl)-6,7-dihydrothiazolo[5,4-c]pyridin-5(4H)-yl)(2,4-difluorophenyl)methanone]: the activity at 3 µM is 0%.

For the compound `COc1cc(F)cc(C#N)c1OCC(=O)N1CCc2nc(N3C4CCC3CNC4)sc2C1` [Example 253, 2-(2-(2-(3,8-diazabicyclo[3.2.1]octan-8-yl)-6,7-dihydrothiazolo[5,4-c]pyridin-5(4H)-yl)-2-oxoethoxy)-5-fluoro-3-methoxybenzonitrile], the activity at 3 µM is -4%.

On to `CC(C)(CC(=O)N1CCc2nc(N3C4CCC3CNC4)sc2C1)C(F)F` [Example 175, 1-(2-(3,8-diazabicyclo[3.2.1]octan-8-yl)-6,7-dihydrothiazolo[5,4-c]pyridin-5(4H)-yl)-4,4-difluoro-3,3-dimethylbutan-1-one], for which the activity at 3 µM was -5%.

Turning to `COc1ccccc1C(=O)N1CCc2nc(N3C4CCC3CNC4)sc2C1` [Example 197, (2-(3,8-diazabicyclo[3.2.1]octan-8-yl)-6,7-dihydrothiazolo[5,4-c]pyridin-5(4H)-yl)(2-methoxyphenyl)methanone], the activity at 3 µM came out at 4%.

As for `O=C(c1ccc(F)cc1)N1CCc2nc(N3C4CCC3CNC4)sc2C1` [Example 198, (2-(3,8-diazabicyclo[3.2.1]octan-8-yl)-6,7-dihydrothiazolo[5,4-c]pyridin-5(4H)-yl)(4-fluorophenyl)methanone], the activity at 3 µM is -5%.

With `COc1cccc(OC)c1OCC(=O)N1CCc2nc(N3C4CCC3CNC4)sc2C1` [Example 172, 1-(2-(3,8-diazabicyclo[3.2.1]octan-8-yl)-6,7-dihydrothiazolo[5,4-c]pyridin-5(4H)-yl)-2-(2,6-dimethoxyphenoxy)ethan-1-one], the activity at 3 µM amounted to 10%.

Consider `O=C(c1ccccc1OC(F)(F)F)N1CCc2nc(N3C4CCC3CNC4)sc2C1` [Example 207, (2-(3,8-diazabicyclo[3.2.1]octan-8-yl)-6,7-dihydrothiazolo[5,4-c]pyridin-5(4H)-yl)(2-(trifluoromethoxy)phenyl)methanone], for which the activity at 3 µM is 0%.

As for `CC(C)C(O)C(=O)N1Cc2sc(N3C4CCC3CNC4)nc2C(C)(C)C1` (stereo not shown) [Example 259, 1-(2-(3,8-diazabicyclo[3.2.1]octan-8-yl)-7,7-dimethyl-6,7-dihydrothiazolo[5,4-c]pyridin-5(4H)-yl)-2-hydroxy-3-methylbutan-1-one], the activity at 3 µM was -6%.

On to `N#Cc1ccccc1OCC(=O)N1CCc2nc(N3C4CCC3CNC4)sc2C1` [Example 167, 2-(2-(2-(3,8-diazabicyclo[3.2.1]octan-8-yl)-6,7-dihydrothiazolo[5,4-c]pyridin-5(4H)-yl)-2-oxoethoxy)benzonitrile], for which the activity at 3 µM was 19%.

With `COC(C(=O)N1CCc2nc(N3C4CCC3CNC4)sc2C1)C1CCCC1` (stereo not shown) [Example 157, 1-(2-(3,8-diazabicyclo[3.2.1]octan-8-yl)-6,7-dihydrothiazolo[5,4-c]pyridin-5(4H)-yl)-2-cyclopentyl-2-methoxyethan-1-one], the activity at 3 µM came to 17%.

On to `O=C([C@H](O)C1CCCCC1)N1CCc2nc(N3C4CCC3CNC4)sc2C1` [Example 177, (2R)-1-(2-(3,8-diazabicyclo[3.2.1]octan-8-yl)-6,7-dihydrothiazolo[5,4-c]pyridin-5(4H)-yl)-2-cyclohexyl-2-hydroxyethan-1-one], for which the activity at 3 µM was -2%.

With `CC(C)c1ccccc1C(=O)N1CCc2nc(N3C4CCC3CNC4)sc2C1` [Example 215, (2-(3,8-diazabicyclo[3.2.1]octan-8-yl)-6,7-dihydrothiazolo[5,4-c]pyridin-5(4H)-yl)(2-isopropylphenyl)methanone], the activity at 3 µM turned out to be 7%.

`CC1(C)CN(C(=O)[C@H](O)C2CCCC2)Cc2sc(N3C4CCC3CNC4)nc21` [Example 262, (2R)-1-(2-(3,8-diazabicyclo[3.2.1]octan-8-yl)-7,7-dimethyl-6,7-dihydrothiazolo[5,4-c]pyridin-5(4H)-yl)-2-cyclopentyl-2-hydroxyethan-1-one]: the activity at 3 µM came to 23%.

Consider `O=C(c1ccccc1Cl)N1CCc2nc(N3C4CCC3CNC4)sc2C1` [Example 210, (2-(3,8-diazabicyclo[3.2.1]octan-8-yl)-6,7-dihydrothiazolo[5,4-c]pyridin-5(4H)-yl)(2-chlorophenyl)methanone], for which the activity at 3 µM came to 11%.

Consider `O=C(c1cccc(F)c1)N1CCc2nc(N3C4CCC3CNC4)sc2C1` [Example 235, (2-(3,8-diazabicyclo[3.2.1]octan-8-yl)-6,7-dihydrothiazolo[5,4-c]pyridin-5(4H)-yl)(3-fluorophenyl)methanone], for which the activity at 3 µM is -3%.

Regarding `CCC(C)(C)CC(=O)N1CCc2nc(N3C4CCC3CNC4)sc2C1` [Example 174, 1-(2-(3,8-diazabicyclo[3.2.1]octan-8-yl)-6,7-dihydrothiazolo[5,4-c]pyridin-5(4H)-yl)-3,3-dimethylpentan-1-one], the activity at 3 µM stood at 3%.

As for `O=C(c1ccccc1)N1CCc2nc(N3C4CCC3CNC4)sc2C1` [Example 193, (2-(3,8-diazabicyclo[3.2.1]octan-8-yl)-6,7-dihydrothiazolo[5,4-c]pyridin-5(4H)-yl)(phenyl)methanone], the activity at 3 µM was -1%.

Staying with this test, now noted: Mus musculus, mIMCD3, 144 h, 10 μM; mean cyst area, 100% for (DMSO + PGE2) and 0% for DMSO control; 6 days of culture; read-out: % Cyst area after incubation with 10 μM test compound.
As for `CCC(C)(C)C(=O)N1CCc2nc(N3C4CCC3CNC4)sc2C1` [Example 154, 1-(2-(3,8-diazabicyclo[3.2.1]octan-8-yl)-6,7-dihydrothiazolo[5,4-c]pyridin-5(4H)-yl)-2,2-dimethylbutan-1-one], the activity at 10 µM was -13%.

With `O=C(CC1CCCC1)N1CCc2nc(N3CCN[C@H](CO)C3)sc2C1` [Example 116, (S)-2-cyclopentyl-1-(2-(3-(hydroxymethyl)piperazin-1-yl)-6,7-dihydrothiazolo[5,4-c]pyridin-5(4H)-yl)ethan-1-one], the activity at 10 µM stood at 55%.

For `O=C(NCc1ccc(F)cc1)N1CCc2nc(N3C4CCC3CNC4)sc2C1` [Example 55, 2-(3,8-diazabicyclo[3.2.1]octan-8-yl)-N-(4-fluorobenzyl)-6,7-dihydrothiazolo[5,4-c]pyridine-5(4H)-carboxamide], the activity at 10 µM turned out to be 0%.

For `O=C(CCc1ccc(F)nc1)N1CCc2nc(N3C4CCC3CNC4)sc2C1` [Example 142, 1-(2-(3,8-diazabicyclo[3.2.1]octan-8-yl)-6,7-dihydrothiazolo[5,4-c]pyridin-5(4H)-yl)-3-(6-fluoropyridin-3-yl)propan-1-one], the activity at 10 µM was -4%.

For `O=C(C(O)c1ccc(F)cc1)N1CCc2nc(N3C4CCC3CNC4)sc2C1` (stereo not shown) [Example 132, 1-(2-(3,8-diazabicyclo[3.2.1]octan-8-yl)-6,7-dihydrothiazolo[5,4-c]pyridin-5(4H)-yl)-2-(4-fluorophenyl)-2-hydroxyethan-1-one], the activity at 10 µM was -6%.

With `COC1(CC(=O)N2CCc3nc(N4C5CCC4CNC5)sc3C2)CCCC1` [Example 134, 1-(2-(3,8-diazabicyclo[3.2.1]octan-8-yl)-6,7-dihydrothiazolo[5,4-c]pyridin-5(4H)-yl)-2-(1-methoxycyclopentyl)ethan-1-one], the activity at 10 µM was -4%.

`CC1(C)CN(C(=O)CC2CCC(F)(F)CC2)Cc2sc(N3CCNCC3)nc21` [Example 100, 2-(4,4-difluorocyclohexyl)-1-(7,7-dimethyl-2-(piperazin-1-yl)-6,7-dihydrothiazolo[5,4-c]pyridin-5(4H)-yl)ethan-1-one]: the activity at 10 µM was -1%.

Regarding `CC(C)OCC(=O)N1CCc2nc(N3C4CCC3CNC4)sc2C1` [Example 4, 1-(2-(3,8-diazabicyclo[3.2.1]octan-8-yl)-6,7-dihydrothiazolo[5,4-c]pyridin-5(4H)-yl)-2-isopropoxyethan-1-one], the activity at 10 µM was determined as 12%.

In the case of `CN1CC2CCC(C1)N2c1nc2c(s1)CN(C(=O)COc1ccnc(F)c1)CC2` [Example 79, 2-((2-fluoropyridin-4-yl)oxy)-1-(2-(3-methyl-3,8-diazabicyclo[3.2.1]octan-8-yl)-6,7-dihydrothiazolo[5,4-c]pyridin-5(4H)-yl)ethan-1-one], the activity at 10 µM was -2%.

With `Cc1cc(F)ccc1CC(=O)N1CCc2nc(N3C4CCC3CNC4)sc2C1` [Example 156, 1-(2-(3,8-diazabicyclo[3.2.1]octan-8-yl)-6,7-dihydrothiazolo[5,4-c]pyridin-5(4H)-yl)-2-(4-fluoro-2-methylphenyl)ethan-1-one], the activity at 10 µM came to 0%.

On to `O=C(CC1CCC1)N1CCc2nc(N3C4CCC3CNC4)sc2C1` [Example 11, 1-(2-(3,8-diazabicyclo[3.2.1]octan-8-yl)-6,7-dihydrothiazolo[5,4-c]pyridin-5(4H)-yl)-2-cyclobutylethan-1-one], for which the activity at 10 µM was -3%.

Regarding `N#CC(C(=O)N1CCc2nc(N3C4CCC3CNC4)sc2C1)C1CCCC1` (stereo not shown) [Example 152, 3-(2-(3,8-diazabicyclo[3.2.1]octan-8-yl)-6,7-dihydrothiazolo[5,4-c]pyridin-5(4H)-yl)-2-cyclopentyl-3-oxopropanenitrile], the activity at 10 µM turned out to be 4%.

With `CC(C)C(O)C(=O)N1CCc2nc(N3C4CCC3CNC4)sc2C1` (stereo not shown) [Example 28, 1-(2-(3,8-diazabicyclo[3.2.1]octan-8-yl)-6,7-dihydrothiazolo[5,4-c]pyridin-5(4H)-yl)-2-hydroxy-3-methylbutan-1-one], the activity at 10 µM amounted to 3%.

The record behind these values is patent publication US20250388604A1, “Compounds and Their Use as PDE4 Activators” (Mironid Limited, priority 2022, published 2025).
